{
  "source": "patent US20230278972A1",
  "about": "“SUBSTITUTED HALOALKYL SULFONANILIDE HERBICIDES” (FMC Corporation, priority 2020, published 2023)",
  "format_in_all_cases": "in vivo",
  "key": {"kochia (Bassia scoparia)": {"tested_on": "kochia (Bassia scoparia)", "test": "Test A1 preemergence, kochia", "method_in_brief": "(§1)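 Pre: seeds in loam/sand blend, directed soil spray. Post: potted plants, same soil, 2–10 cm, 1–2 leaf stage. Chemicals in non-phytotoxic solvent + surfactant for both.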"}, "[1]": {"tested_on": "ragweed (common ragweed, Ambrosia artemisiifolia)", "test": "Test A1 preemergence, ragweed", "method_in_brief": "as §1"}, "[2]": {"tested_on": "Oat, Wild (wild oat, Avena fatua)", "test": "Test A1 postemergence, Oat, Wild", "settings": "for Oat, Wild plant response rating: postemergence; for Plant response rating, Oat, Wild: Postemergence", "method_in_brief": "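Herbicidal response was scored on plants treated either preemergence, by directed spray onto soil of a loam–sand blend after sowing, or postemergence on potted plants at the one- to two-leaf stage, 2–10 cm high. Test chemicals were carried in a non-phytotoxic solvent mix with surfactant.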"}, "[3]": {"tested_on": "galium (catchweed bedstraw, Galium aparine)", "test": "Test A1 postemergence, galium", "settings": "for Galium plant response rating: postemergence; for Plant response rating, Galium: Postemergence", "method_in_brief": "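Seeds were first planted into a blend of loam soil and sand and given a preemergence directed soil spray. In parallel, pots of the same soil were sown for postemergence application once plants reached 2 to 10 cm and the one- to two-leaf stage. Both used surfactant-containing non-phytotoxic solvent formulations.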"}, "[4]": {"tested_on": "ducksalad (Heteranthera limosa)", "test": "Test B1 flooded paddy test, ducksalad", "settings": "250 g ai/ha, Flood, applied to paddy water, 2-leaf stage, visually evaluated after 10 to 14 days", "description": "A dash (-) response means no test result."}, "[5]": {"settings": "31 g ai/ha, 0 to 100 scale (0 no effect, 100 complete control)"}, "[6]": {"settings": "125 g ai/ha, 0 to 100 scale, 0 no effect, 100 complete control"}, "[7]": {"settings": "31 g ai/ha, 0 to 100 scale (0 no effect, 100 complete control), 10 days"}},
  "data": [
    {"compound": "Cc1c(C(=O)N2C[C@@H](C)O[C@H](C)C2)cc(N(COC(=O)C(C)(C)C)S(=O)(=O)C(F)(F)F)c(C)c1C", "note": "(relative stereo) [Compound 373]", "values": [
      {"measurement": "Plant response rating, Kochia", "setting": "kochia (Bassia scoparia); [5]", "result": 0},
      {"measurement": "Plant response rating, Kochia", "setting": "kochia (Bassia scoparia); [6]", "result": 0},
      {"measurement": "Plant response rating, Ragweed", "setting": "[1]; [5]", "result": 50},
      {"measurement": "Plant response rating, Ragweed", "setting": "[1]; [6]", "result": 50},
      {"measurement": "Oat, Wild plant response rating", "setting": "[2]; [5]", "result": 0},
      {"measurement": "Plant response rating, Oat, Wild", "setting": "[2]; 125 g ai/ha, 0 to 100 scale", "result": 10},
      {"measurement": "Galium plant response rating", "setting": "[3]; [5]", "result": 50},
      {"measurement": "Plant response rating, Galium", "setting": "[3]; 125 g ai/ha, 0 to 100 scale", "result": 70},
      {"measurement": "Plant response rating, Ducksalad (0 to 100 scale, 0 is no effect, 100 is complete control)", "setting": "[4]", "result": 85}
    ]},
    {"compound": "CCOC(=O)N(c1cc(C(=O)N2C[C@@H](C)O[C@H](C)C2)c(C)c(C)c1C)S(=O)(=O)C(F)(F)F", "note": "(relative stereo) [Compound 374]", "values": [
      {"measurement": "Plant response rating, Kochia", "setting": "kochia (Bassia scoparia); [5]", "result": 0},
      {"measurement": "Plant response rating, Kochia", "setting": "kochia (Bassia scoparia); [6]", "result": 0},
      {"measurement": "Plant response rating, Ragweed", "setting": "[1]; [5]", "result": 0},
      {"measurement": "Plant response rating, Ragweed", "setting": "[1]; [6]", "result": 70},
      {"measurement": "Oat, Wild plant response rating", "setting": "[2]; [5]", "result": 0},
      {"measurement": "Plant response rating, Oat, Wild", "setting": "[2]; 125 g ai/ha, 0 to 100 scale", "result": 10},
      {"measurement": "Galium plant response rating", "setting": "[3]; [5]", "result": 60},
      {"measurement": "Plant response rating, Galium", "setting": "[3]; 125 g ai/ha, 0 to 100 scale", "result": 80},
      {"measurement": "Plant response rating, Ducksalad (0 to 100 scale, 0 is no effect, 100 is complete control)", "setting": "[4]", "result": 85}
    ]},
    {"compound": "Cc1c(C(=O)N2CCSCC2)cc(N(COC(=O)C(C)(C)C)S(=O)(=O)C(F)(F)F)c(C)c1C", "note": "[Compound 285]", "values": [
      {"measurement": "Plant response rating, Kochia", "setting": "kochia (Bassia scoparia); [5]", "result": 20},
      {"measurement": "Plant response rating, Kochia", "setting": "kochia (Bassia scoparia); [6]", "result": 70},
      {"measurement": "Plant response rating, Ragweed", "setting": "[1]; [5]", "result": 0},
      {"measurement": "Plant response rating, Ragweed", "setting": "[1]; [6]", "result": 10},
      {"measurement": "Plant response rating, Oat, Wild", "setting": "[2]; [7]", "result": 0},
      {"measurement": "Plant response rating, Oat, Wild", "setting": "[2]; 125 g ai/ha, 0 to 100 scale", "result": 10},
      {"measurement": "Plant response rating, Galium", "setting": "[3]; [7]", "result": 40},
      {"measurement": "Plant response rating, Galium", "setting": "[3]; 125 g ai/ha, 0 to 100 scale", "result": 80},
      {"measurement": "Plant response rating, Ducksalad (0 to 100 scale, 0 is no effect, 100 is complete control)", "setting": "[4]", "result": 50}
    ]},
    {"compound": "CCOC(=O)N(c1cc(C(=O)N2CCSCC2)c(C)c(C)c1C)S(=O)(=O)C(F)(F)F", "note": "[Compound 286]", "values": [
      {"measurement": "Plant response rating, Kochia", "setting": "kochia (Bassia scoparia); [5]", "result": 0},
      {"measurement": "Plant response rating, Kochia", "setting": "kochia (Bassia scoparia); [6]", "result": 80},
      {"measurement": "Plant response rating, Ragweed", "setting": "[1]; [5]", "result": 0},
      {"measurement": "Plant response rating, Ragweed", "setting": "[1]; [6]", "result": 10},
      {"measurement": "Plant response rating, Oat, Wild", "setting": "[2]; [7]", "result": 0},
      {"measurement": "Plant response rating, Oat, Wild", "setting": "[2]; 125 g ai/ha, 0 to 100 scale", "result": 0},
      {"measurement": "Plant response rating, Galium", "setting": "[3]; [7]", "result": 50},
      {"measurement": "Plant response rating, Galium", "setting": "[3]; 125 g ai/ha, 0 to 100 scale", "result": 80},
      {"measurement": "Plant response rating, Ducksalad (0 to 100 scale, 0 is no effect, 100 is complete control)", "setting": "[4]", "result": 50}
    ]},
    {"compound": "C#CCN(C)C(=O)c1cc(NS(=O)(=O)C(F)(F)F)c(C)c(C)c1C", "note": "[Compound 368]", "values": [
      {"measurement": "Plant response rating, Kochia", "setting": "kochia (Bassia scoparia); [5]", "result": 20},
      {"measurement": "Plant response rating, Kochia", "setting": "kochia (Bassia scoparia); [6]", "result": 90},
      {"measurement": "Plant response rating, Ragweed", "setting": "[1]; [5]", "result": 50},
      {"measurement": "Plant response rating, Ragweed", "setting": "[1]; [6]", "result": 80},
      {"measurement": "Oat, Wild plant response rating", "setting": "[2]; [5]", "result": 0},
      {"measurement": "Plant response rating, Oat, Wild", "setting": "[2]; 125 g ai/ha, 0 to 100 scale", "result": 10},
      {"measurement": "Galium plant response rating", "setting": "[3]; [5]", "result": 70},
      {"measurement": "Plant response rating, Galium", "setting": "[3]; 125 g ai/ha, 0 to 100 scale", "result": 100},
      {"measurement": "Plant response rating, Ducksalad (0 to 100 scale, 0 is no effect, 100 is complete control)", "setting": "[4]", "result": 60}
    ]},
    {"compound": "Cc1c(C(=O)N2CCC(C)CC2)cc(N(COC(=O)C(C)(C)C)S(=O)(=O)C(F)(F)F)c(C)c1C", "note": "[Compound 369]", "values": [
      {"measurement": "Plant response rating, Kochia", "setting": "kochia (Bassia scoparia); [5]", "result": 0},
      {"measurement": "Plant response rating, Kochia", "setting": "kochia (Bassia scoparia); [6]", "result": 0},
      {"measurement": "Plant response rating, Ragweed", "setting": "[1]; [5]", "result": 0},
      {"measurement": "Plant response rating, Ragweed", "setting": "[1]; [6]", "result": 90},
      {"measurement": "Oat, Wild plant response rating", "setting": "[2]; [5]", "result": 0},
      {"measurement": "Plant response rating, Oat, Wild", "setting": "[2]; 125 g ai/ha, 0 to 100 scale", "result": 0},
      {"measurement": "Galium plant response rating", "setting": "[3]; [5]", "result": 60},
      {"measurement": "Plant response rating, Galium", "setting": "[3]; 125 g ai/ha, 0 to 100 scale", "result": 80},
      {"measurement": "Plant response rating, Ducksalad (0 to 100 scale, 0 is no effect, 100 is complete control)", "setting": "[4]", "result": 65}
    ]},
    {"compound": "C#CCN(C)C(=O)c1cc(N(COC(=O)C(C)(C)C)S(=O)(=O)C(F)(F)F)c(C)c(C)c1C", "note": "[Compound 371]", "values": [
      {"measurement": "Plant response rating, Kochia", "setting": "kochia (Bassia scoparia); [5]", "result": 0},
      {"measurement": "Plant response rating, Kochia", "setting": "kochia (Bassia scoparia); [6]", "result": 70},
      {"measurement": "Plant response rating, Ragweed", "setting": "[1]; [5]", "result": 40},
      {"measurement": "Plant response rating, Ragweed", "setting": "[1]; [6]", "result": 90},
      {"measurement": "Oat, Wild plant response rating", "setting": "[2]; [5]", "result": 0},
      {"measurement": "Plant response rating, Oat, Wild", "setting": "[2]; 125 g ai/ha, 0 to 100 scale", "result": 0},
      {"measurement": "Galium plant response rating", "setting": "[3]; [5]", "result": 70},
      {"measurement": "Plant response rating, Galium", "setting": "[3]; 125 g ai/ha, 0 to 100 scale", "result": 100},
      {"measurement": "Plant response rating, Ducksalad (0 to 100 scale, 0 is no effect, 100 is complete control)", "setting": "[4]", "result": 55}
    ]}
  ]
}
